Results reported in the supplement of paper PMC10307832.

Columns and labels:
Assay in all cases: relative viability (nuclei count vs DMSO), 5 days (fraction); higher = more cells survive
[1] = compound: CCN(CCO)CCCC(C)Nc1ccnc2cc(Cl)ccc12 [Hydroxychloroquine] + CC(=O)Nc1cccc(-n2c(=O)n(C3CC3)c(=O)c3c(Nc4ccc(I)cc4F)n(C)c(=O)c(C)c32)c1 [Trametinib] (partner 0.02 µM)
Procedure, shortened: (§1)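 Medians of duplicate plates are given as relative viability. That measure is the nuclei count in treated wells divided by the count in vehicle wells. Counts were taken on 4× images of lung cancer cell lines in 1536-well plates, 5 days after pin-tool dosing the day after seeding with one drug alone or a fixed anchor-drug dose plus five library-drug doses (not always all listed) in √10 steps.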

[2] = compound: CCN(CCO)CCCC(C)Nc1ccnc2cc(Cl)ccc12 [Hydroxychloroquine] + N=C(N)NC(=N)NCCc1ccccc1 [Phenformin] (partner 250 µM)
Procedure, shortened: as §1

[3] = compound: CCN(CCO)CCCC(C)Nc1ccnc2cc(Cl)ccc12 [Hydroxychloroquine] + Nc1nc2[nH]cc(CCc3ccc(C(=O)N[C@@H](CCC(=O)O)C(=O)O)cc3)c2c(=O)[nH]1 [Pemetrexed] (partner 0.2 µM)
Procedure, shortened: as §1

[4] = compound: CCN(CCO)CCCC(C)Nc1ccnc2cc(Cl)ccc12 [Hydroxychloroquine] + CC1(C)CCC(c2ccc(Cl)cc2)=C(CN2CCN(c3ccc(C(=O)NS(=O)(=O)c4ccc(N[C@H](CCN5CCOCC5)CSc5ccccc5)c(S(=O)(=O)C(F)(F)F)c4)cc3)CC2)C1 [Navitoclax] (partner 0.5 µM)
Procedure, shortened: as §1

Cell Line	relative viability ([1]; first compound 0.5 µM)	relative viability ([1]; first compound 1.581 µM)	relative viability ([1]; first compound 5 µM)	relative viability ([1]; first compound 15.81 µM)	relative viability ([1]; first compound 50 µM)	relative viability ([2]; first compound 0.5 µM)	relative viability ([2]; first compound 1.581 µM)	relative viability ([2]; first compound 5 µM)	relative viability ([2]; first compound 15.81 µM)	relative viability ([2]; first compound 50 µM)	relative viability ([3]; first compound 0.5 µM)	relative viability ([3]; first compound 1.581 µM)	relative viability ([3]; first compound 5 µM)	relative viability ([3]; first compound 15.81 µM)	relative viability ([3]; first compound 50 µM)	relative viability ([4]; first compound 0.5 µM)	relative viability ([4]; first compound 1.581 µM)	relative viability ([4]; first compound 5 µM)	relative viability ([4]; first compound 15.81 µM)	relative viability ([4]; first compound 50 µM)
HCC-78	0.823	0.834	0.878	0.752	0.904	0.809	0.739	0.716	0.653	0.741	0.927	0.973	0.902	0.891	0.959	0.865	0.82	0.993	0.768	0.777
NCI-H2405	0.668	0.677	0.585	0.62	0.615	0.417	0.352	0.368	0.384	0.398	1.07	1.05	0.984	0.515	1.03	1.03	0.753	0.857	0.914	0.8
SW 1573	0.617	0.595	0.55	0.625	0.499	0.356	0.333	0.402	0.402	0.368	0.892	0.686	0.794	0.86	0.758	0.971	0.884	1.01	1.03	0.972
EMC-BAC-2	0.917	0.694	0.85	0.784	0.753	0.543	0.385	0.497	0.523	0.503	0.49	0.439	0.434	0.313	0.411	1.17	1.23	1.17	1.17	1.36
NCI-H1650	0.556	0.681	0.515	0.591	0.494	0.473	0.507	0.404	0.402	0.303	0.337	0.331	0.342	0.397	0.346	1.06	1.06	1.24	1.04	1.29
NCI-H647	0.474	0.494	0.438	0.497	0.519	0.503	0.556	0.441	0.63	0.661	0.186	0.176	0.202	0.196	0.182	1.23	0.938	1.29	1.19	1.31
LCLC-97TM1	0.208	0.185	0.196	0.23	0.16	0.435	0.409	0.488	0.422	0.384	0.199	0.226	0.169	0.179	0.175	0.432	0.619	0.656	0.517	0.397
H3255	0.695	0.614	0.546	0.854	0.665	0.332	0.368	0.326	0.356	0.313	0.566	0.603	0.543	0.586	0.477	0.56	0.422	0.546	0.522	0.635
LXF-289	0.659	0.689	0.674	0.72	0.759	0.533	0.513	0.517	0.505	0.495	0.886	0.908	0.92	0.929	0.927	0.956	0.986	0.983	0.948	0.999
NCI-H441	0.467	0.39	0.386	0.349	0.462	0.922	0.726	0.815	0.94	0.944	0.234	0.258	0.284	0.227	0.278		0.767	0.52	0.707	0.671
LC-2-ad	0.925	0.98	0.941	0.865	0.924	0.587	0.521	0.573	0.632	0.54	0.272	0.273	0.244	0.261	0.282	0.337	0.332	0.478	0.416	0.405
SK-MES-1	0.558	0.52	0.538	0.559	0.553	0.668	0.741	0.723	0.693	0.635	1.03	0.73	1.02	1.05	0.945	1.45	1.21	1.25	1.27	1.17
A-427	0.752	0.639	0.697	0.715	0.675	0.316	0.293	0.315	0.284	0.229	0.948	1.05	0.926	0.838	1.01	0.875	0.776	0.993	0.919	1.04
NCI-H322M	0.497	0.6	0.511	0.511	0.537	0.704	0.799	0.786	0.743	0.744	0.639	0.609	0.601	0.608	0.592	1	1.15	1.12	1.15	1.43
HCC-366	0.334	0.323	0.355	0.282	0.458	0.564	0.558	0.597	0.605	0.657	0.157	0.151	0.14	0.18	0.177	1.09	1.04	0.963	1.07	1.16
NCI-H1975	0.36	0.322	0.341	0.38	0.321	0.41	0.37	0.378	0.408	0.396	0.281	0.325	0.309	0.297	0.301	1.08	1.05	1.15	1.03	1.22

Cell Line	relative viability ([1]; first compound 0.5 µM)	relative viability ([1]; first compound 1.581 µM)	relative viability ([1]; first compound 5 µM)	relative viability ([1]; first compound 15.81 µM)	relative viability ([1]; first compound 50 µM)	relative viability ([2]; first compound 0.5 µM)	relative viability ([2]; first compound 1.581 µM)	relative viability ([2]; first compound 5 µM)	relative viability ([2]; first compound 15.81 µM)	relative viability ([2]; first compound 50 µM)	relative viability ([3]; first compound 0.5 µM)	relative viability ([3]; first compound 1.581 µM)	relative viability ([3]; first compound 5 µM)	relative viability ([3]; first compound 15.81 µM)	relative viability ([3]; first compound 50 µM)	relative viability ([4]; first compound 0.5 µM)	relative viability ([4]; first compound 1.581 µM)	relative viability ([4]; first compound 5 µM)	relative viability ([4]; first compound 15.81 µM)	relative viability ([4]; first compound 50 µM)
NCI-H1437	0.543	0.579	0.515	0.459	0.544	0.304	0.316	0.31	0.297	0.31	0.326	0.314	0.324	0.33	0.321	1.08	1.1	1.11	1.14	1.11
NCI-H2009	0.308	0.247	0.328	0.272	0.259	0.502	0.475	0.491	0.486	0.469	1.07	0.991	1.02	1.07	1.01	1.16	1.22	1.21	1.13	1.25
NCI-H1651	0.832	0.894	0.834	0.864	0.879	0.358	0.346	0.297	0.356	0.325	0.628	0.626	0.602	0.597	0.449	0.927	1.05	1.12	1.07	1.01
NCI-H1666	0.789	0.786	0.848	0.812	0.794	0.601	0.551	0.586	0.562	0.554	0.878	0.765	0.846	0.755	0.844	0.921	0.951	0.986	0.827	0.918
NCI-H1734	0.639	0.604	0.645	0.668	0.699	0.361	0.42	0.361	0.358	0.405	0.46	0.398	0.408	0.427	0.427	0.913	0.812	0.86	0.988	0.948
EPLC-272H	0.272	0.311	0.273	0.271	0.298	0.267	0.312	0.273	0.309	0.241		0.331	0.325	0.341	0.352	1.19	1.07	1.28	1.24	1.29
NCI-H2023	0.529	0.492	0.504	0.53	0.503	0.423	0.433	0.436	0.4	0.386	0.267	0.22	0.246	0.238	0.295	1.09	0.985	1.03	0.974	1.03
BEN	0.951	0.881	0.954	1.12	1.03	0.255	0.26	0.234	0.241	0.303	0.928	0.719	0.733	0.855	0.684	0.051	0.0669	0.0688	0.0612	0.0766
COR-L 105	0.472	0.393	0.44	0.384	0.391	0.529	0.476	0.497	0.351	0.447	1.12	1.01	0.967	1.05	1.08	0.595	0.747	0.778	0.816	0.594
HCC-15	0.4	0.387	0.351	0.38	0.311	0.461	0.465	0.522	0.497	0.456	0.231	0.241	0.205	0.226	0.231	0.72	0.669	0.702	0.758	0.714
NCI-H2170	0.867	0.852	0.933	1.05	0.896	0.427	0.413	0.435	0.427	0.417	0.341	0.265	0.255	0.233	0.29	0.54	0.695	0.631	0.644	0.549
RERF-LC-KJ	0.858	0.826	0.825	0.83	0.886	0.4	0.402	0.406	0.402	0.408	0.448	0.466	0.457	0.489	0.467	0.894	0.983	0.93	0.934	0.749
NCI-H1993	0.525	0.589	0.597	0.551	0.469	0.514	0.55	0.475	0.51	0.476	0.577	0.507	0.623	0.601	0.597	0.931	0.779	0.879	1.03	0.893
NCI-H1915	0.328	0.251	0.325	0.311	0.306	0.347	0.36	0.361	0.383	0.369	0.531	0.514	0.505	0.524	0.521	0.783	0.773	0.84	0.831	0.76
SK-LU-1	0.454	0.374	0.508	0.462	0.404	0.505	0.528	0.544	0.538	0.429	1.02	0.876	0.953	1.11	1.03	0.747	0.96	0.851	1.21	0.658
LOU-NH91	0.795	0.69	0.799	0.828	0.848	0.704	0.562	0.679	0.732	0.466	0.359	0.413	0.451	0.386	0.427	0.679	0.543	0.742	0.676	0.826
